Three molecules from patent publication US12331037B2, “Pyrimidines as EGFR-inhibitors and methods of treating disorders” (Dana-Farber Cancer Institute, Inc., priority 2014, dated 2025) can be followed below.

Where two headings read alike, the source gives them in different places.

Experiment [1] relates to Ba/F3 EGFR DEL/T790M/L718Q. The experiment can be described thus: Ba/F3 cell proliferation (MTS) assay. Type of experiment: cell-based, murine. The settings on record: Mus musculus.
Description: (§1) Murine Ba/F3 cells are engineered to express mutant EGFR protein along with untransformed Ba/F3 cells and are used to performed single drug screens. Cell viability is assessed after 72 hours of compound i.e., compounds of Formula (I), exposure using the colorimetric cell proliferation MTS assay kit (Promega).
(§2) All cell lines were maintained in RPMI 1640 (Invitrogen, Carlsbad, CA) supplemented with 10% FBS 100 units/mL penicillin, 100 units/mL streptomycin, and 2 mM glutamine.
(§3) Ba/F3, NIH-3T3, cells were infected with retrovirus and PC9GR4 and HCC827 EPR cells infected with lentivirus according to standard protocols, as described previously (Engelman, J. A., et al., Proc Natl Acad Sci USA. 2005; 102:3788-93). Stable clones were obtained by selection in puromycin (2 μg/ml).
(§4) Growth and inhibition of growth was assessed by MTS assay and was performed according to previously established methods (Zhou, W., et al., Nature. 462, 2009, 1070-4; Ercan, D., et al., Cancer Discov. 934, 2012, 934-47). […] All experimental points were set up in six wells and all experiments were repeated at least three times. […] The curves were fitted using a non-linear regression model with a sigmoidal dose response.
The subject of another experiment is Ba/F3 EGFR DEL/L718Q. Put plainly: Ba/F3 cell proliferation (MTS) assay. Type of experiment: cell-based, murine. The settings on record: Mus musculus.
The test system of another experiment is Ba/F3 EGFR L718Q. The experiment can be described thus: cells. The settings on record: Mus musculus, 72 h.
In the next experiment the test system is Ba/F3 EGFR DEL/844V. The experiment can be described thus: Ba/F3 cell proliferation (MTS) assay. Type of experiment: cell-based, murine. To be noted: Mus musculus.
Another experiment deals with Ba/F3 EGFR WT. The experiment can be described thus: Ba/F3 cell proliferation (MTS) assay. Type of experiment: cell-based, murine. The settings on record: Mus musculus.
The subject of experiment [2] is Ba/F3 EGFR L858R/T790M/L718Q. Put plainly: Ba/F3 cell proliferation (MTS) assay. Type of experiment: cell-based, murine. The settings on record: Mus musculus.
Description: as §1, §2, §3, §4
A further experiment relates to Ba/F3 EGFR DEL. Put plainly: Ba/F3 cell proliferation (MTS) assay. To be noted: Mus musculus. Type of experiment: cell-based, murine.
The test system of another experiment is Ba/F3 EGFR L858R. Put plainly: Ba/F3 cell proliferation (MTS) assay. The settings on record: Mus musculus. Type of experiment: cell-based, murine.
For a further experiment, the system named is Ba/F3 EGFR L858R/T790M. The experiment can be described thus: Ba/F3 cell proliferation (MTS) assay. Type of experiment: cell-based, murine. To be noted: Mus musculus.
For another experiment, the system named is Ba/F3 EGFR L858R/L718Q. Put plainly: Ba/F3 cell proliferation (MTS) assay. Type of experiment: cell-based, murine. To be noted: Mus musculus.
A further experiment deals with Ba/F3 EGFR DEL/T790M. The experiment can be described thus: Ba/F3 cell proliferation (MTS) assay. Type of experiment: cell-based, murine. To be noted: Mus musculus.
Setting [3] is: Ba/F3, EGFR DEL/T790M/L718Q, 72 hours, MTS, read-out: IC50.
The mark [4] stands for this setting: Ba/F3, EGFR DEL/L718Q, 72 hours, MTS, read-out: IC50.
Setting [5] is: Ba/F3, EGFR DEL/844V, 72 hours, MTS, read-out: IC50.
Where [6] appears, read: Ba/F3, EGFR WT, 72 hours, MTS, read-out: IC50.
Setting [7] is: Ba/F3, EGFR L858R/T790M/L718Q, 72 hours, MTS, read-out: IC50.
The mark [8] stands for this setting: Ba/F3, EGFR DEL, 72 hours, MTS, read-out: IC50.
Where [9] appears, read: Ba/F3, EGFR L858R, 72 hours, MTS, read-out: IC50.
Setting [10] is: Ba/F3, EGFR L858R/T790M, 72 hours, MTS, read-out: IC50.
Where [11] appears, read: Ba/F3, EGFR L858R/L718Q, 72 hours, MTS, read-out: IC50.
Where [12] appears, read: Ba/F3, EGFR DEL/T790M, 72 hours, MTS, read-out: IC50.

Description for Ba/F3 EGFR DEL/844V: as §1, §2, §3, §4
Description for Ba/F3 EGFR DEL/L718Q: as §1, §2, §3, §4
Description for Ba/F3 EGFR L718Q: as §1, §2
The EGFR L718Q and L844V mutations were introduced via site directed mutagenesis using the Quick Change Site-Directed Mutagenesis kit (Stratagene; La Jolla, CA) according to the manufacturer's instructions. The L718Q mutation was generated using forward primer 5′-[sequence]-3′ (SEQ. ID. NO. 1) and reverse primer 5′ [sequence]-3′ (SEQ. ID. NO. 2). The L844V mutation was generated using forward primer 5′-[sequence]-3′ (SEQ. ID. NO. 3) and reverse primer 5′-[sequence]-3′ (SEQ. ID. NO. 4). All constructs were confirmed by DNA sequencing. The constructs were shuttled into the retroviral vector JP1540 or lentiviral vector JP1698 using the BD Creator™ System (BD Biosciences). […]
Growth and inhibition of growth was assessed by MTS assay and was performed according to previously established methods (Zhou, W., et al., Nature. 462, 2009, 1070-4; Ercan, D., et al., Cancer Discov. 934, 2012, 934-47). […]
Description for Ba/F3 EGFR L858R/L718Q: as §1, §2, §3, §4
Description for Ba/F3 EGFR WT: as §1
All experimental points were set up in six wells and all experiments were repeated at least three times. […] The curves were fitted using a non-linear regression model with a sigmoidal dose response.

For orientation: IC50 means the concentration needed to halve the response being measured. For `C=CC(=O)Nc1cc(Nc2nccc(-c3cn(C)c4ccccc34)n2)c(OC)cc1N(C)CCN(C)C` [AZD9291], the IC50 in [1] (Ba/F3 EGFR, 72 h) is 576 nM; in the experiment on Ba/F3 EGFR DEL/L718Q (Ba/F3 EGFR, 72 h), 55.4 nM; in the experiment with Ba/F3 EGFR L718Q, 1250 nM; in the experiment with Ba/F3 EGFR DEL/844V (Ba/F3 EGFR, 72 h), 15.1 nM; in the experiment with Ba/F3 EGFR WT (Ba/F3 EGFR, 72 h), 23 nM; in [2] (Ba/F3 EGFR, 72 h), 1270 nM. The IC50 in the experiment on Ba/F3 EGFR DEL (Ba/F3 EGFR, 72 h) was determined as 1.79 nM; with Ba/F3 EGFR L858R (Ba/F3 EGFR-L858R, 72 h), 1.98 nM; in the experiment on Ba/F3 EGFR L858R/T790M (Ba/F3 EGFR, 72 h), 10 nM; in the experiment on Ba/F3 EGFR L858R/L718Q (Ba/F3 EGFR, 72 h) it was 1180 nM; in the experiment on Ba/F3 EGFR DEL/T790M (Ba/F3 EGFR, 72 h), 10 nM.

Turning to `C=CC(=O)Nc1cc(Nc2nccc(-n3ccc4cccnc43)n2)c(OC)cc1N(C)CCN(C)C` [Compound I-1, N-(5-((4-(1H-pyrrolo[2,3-b]pyridin-1-yl)pyrimidin-2-yl)amino)-2-((2-(dimethylamino)ethyl)(methyl)amino)-4-methoxyphenyl)acrylamide], the concentration for half-maximal inhibition (IC50) in experiment [1] (setting [3]) came out at 644 nM; in the experiment with Ba/F3 EGFR DEL/L718Q (setting [4]), 176 nM; in the experiment on Ba/F3 EGFR DEL/844V (setting [5]), 53.1 nM; in the experiment on Ba/F3 EGFR WT (setting [6]) it was 323 nM; in experiment [2] (setting [7]), 1970 nM; in the experiment on Ba/F3 EGFR DEL (setting [8]), 42.9 nM. In addition, the half-maximal inhibitory concentration (IC50) is 60 nM in the experiment with Ba/F3 EGFR L858R (setting [9]), 189 nM with Ba/F3 EGFR L858R/T790M (setting [10]), 2060 nM in the experiment with Ba/F3 EGFR L858R/L718Q (setting [11]) and 64.8 nM with Ba/F3 EGFR DEL/T790M (setting [12]).

Turning to `C=CC(=O)Nc1cccc(Oc2nc(Nc3ccc(N4CCN(C)CC4)cc3OC)ncc2Cl)c1` [WZ4002], the concentration for half-maximal inhibition (IC50) stood at 2010 nM in experiment [1] (setting [3]); 1490 nM in the experiment with Ba/F3 EGFR DEL/L718Q (setting [4]); 2890 nM with Ba/F3 EGFR L718Q; 956 nM with Ba/F3 EGFR DEL/844V (setting [5]); 100 nM in the experiment with Ba/F3 EGFR WT (setting [6]); 2230 nM in experiment [2] (setting [7]). Also, the IC50 in the experiment on Ba/F3 EGFR DEL (setting [8]) is 8.4 nM; with Ba/F3 EGFR L858R (setting [9]), 6.8 nM; in the experiment with Ba/F3 EGFR L858R/T790M (setting [10]) it was 14.2 nM; in the experiment with Ba/F3 EGFR L858R/L718Q (setting [11]), 2740 nM; in the experiment with Ba/F3 EGFR DEL/T790M (setting [12]), 19.2 nM.
